Measurements taken from patent publication US20230263822A1, “MODULATION OF FACTOR 11 EXPRESSION” (Ionis Pharmaceuticals, Inc., priority 2008, published 2023).
Strand notation (5' to 3'): a small letter for the sugar, then the base; units joined by * are phosphorothioate-linked, units joined directly phosphodiester-linked; [ ] holds rarer units or linkages, { } end groups; capitals alone tell only the bases. e = 2'-O-(2-methoxyethyl) (MOE); [5mC] = 5-methylcytosine; d = 2'-deoxy (DNA)

How the values were obtained:
Factor 11 mRNA = Factor 11 mRNA in cynomolgus monkey liver, day 55 (Example 46); format: in vivo, cynomolgus monkeys; details: for % inhibition of Factor 11 mRNA in liver relative to the PBS control: 25 mg/kg subcutaneously, primer probe set LTS00301
Experimental: (§1) Groups, each consisting of two male and two female monkeys, were injected subcutaneously with 25 mg/kg of ISIS 416850, ISIS 449709, ISIS 445522, ISIS 449710, ISIS 449707, ISIS 449711, ISIS 449708, 416858, and ISIS 445531. Antisense oligonucleotide was administered to the monkeys at 25 mg/kg three times per week for week 1 and 25 mg/kg twice per week for weeks 2 to 8. A control group, consisting of two male and two female monkeys was injected subcutaneously with PBS according to the same dosing regimen. Body weights were taken 14 days and 7 days before the start of treatment and were then measured weekly throughout the treatment period. Blood samples were collected 14 days and 5 days before the start of treatment and subsequently several times during the dosing regimen for PT and aPTT measurements, and measurement of various hematologic factors. On day 55, the monkeys were euthanized by exsanguination while under deep anesthesia, and organs harvested for further analysis.
On day 55, RNA was extracted from liver tissue for real-time PCR analysis of Factor 11 using primer probe set LTS00301. Results are presented as percent inhibition of Factor 11, relative to PBS control.

[1] = Kidney function, BUN, urine protein to creatinine ratio in cynomolgus monkeys (Example 46); format: in vivo; details: for Urine protein/creatinine ratio: day 49
Experimental: as §1
To evaluate the impact of ISIS oligonucleotides on kidney function, urine samples were collected on different days. […] The ratio of urine protein to creatinine in urine samples after antisense oligonucleotide treatment was also calculated for day 49 and results are presented in Table 156. As observed in Tables 155 and 156, there were no significant increases in any of the kidney metabolic markers after antisense oligonucleotide treatment.

[2] = Liver function, ALT, AST, bilirubin in cynomolgus monkeys (Example 46); format: in vivo; details: plasma
Experimental: as §1
Plasma concentrations of alanine transaminase (ALT) and aspartate transaminase (AST) were measured and the results are presented in Tables 152 and 153 expressed in IU/L. Plasma levels of bilirubin were also measured and results are presented in Table 154 expressed in mg/dL. As observed in Tables 152-154, there were no significant increases in any of the liver metabolic markers after antisense oligonucleotide treatment.

[3] = system: IL-1β, IL-6, IFN-γ, TNF-α, IL-8, MIP-1α, MCP-1, MIP-1β, RANTES; assay: Cytokine and chemokine assays in cynomolgus monkeys (Example 46); format: in vivo
Experimental: as §1
Blood samples obtained from all monkey groups were sent to Pierce Biotechnology (Woburn, Mass.) for measurements of chemokine and cytokine levels. Levels of IL-1β, IL-6, IFN-γ, and TNF-α were measured using the respective primate antibodies and levels of IL-8, MIP-1α, MCP-1, MIP-1β and RANTES were measured using the respective cross-reacting human antibodies. Measurements were taken 14 days before the start of treatment and on day 55, when the monkeys were euthanized.

[4] = Hematology assays in cynomolgus monkeys (Example 46); format: in vivo
Experimental: as §1

[5] = Day −5 (before start of treatment)
[6] = Day −14 (before start of treatment)
[7] = day-14 (before start of treatment)

## 445531 (antisense eG*eG*e[5mC]*eA*eT*dT*dG*dG*dT*dG*d[5mC]*dA*d[5mC]*eA*eG*eT*eT*eT) [compound 445531]
Factor 11 mRNA
  % inhibition of Factor 11 mRNA in liver relative to the PBS control: 66%

## ISIS 445531: 5-8-5 or 6-8-6 MOE microwalk gapmer (Table 44) (antisense eG*eG*e[5mC]*eA*eT*dT*dG*dG*dT*dG*d[5mC]*dA*d[5mC]*eA*eG*eT*eT*eT)
[1]; Day 31
  BUN levels: 20 mg/dL
[1]; Day 55
  BUN levels: 22 mg/dL
[1]; [5]
  BUN levels: 18 mg/dL
[1]; [6]
  BUN levels: 22 mg/dL
[1]
  Urine protein/creatinine ratio: 0.08
[2]; Day 31
  ALT: 57 IU/L
  AST: 47 IU/L
  Bilirubin: 0.13 mg/dL
[2]; Day 55
  ALT: 73 IU/L
  AST: 49 IU/L
  Bilirubin: 0.11 mg/dL
[2]; Day −5
  ALT: 73 IU/L
  AST: 46 IU/L
  Bilirubin: 0.18 mg/dL
[2]; Day −14
  ALT: 84 IU/L
  AST: 78 IU/L
  Bilirubin: 0.22 mg/dL
Factor 11 mRNA; cynomolgus monkeys, 25 mg/kg
  Factor 11 mRNA in liver vs PBS control: significant reduction of Factor 11 mRNA
[3]; day 55
  IFN-γ level: 15 pg/mL
  IL-1ß level: 155 pg/mL
  IL-6 level: 1 pg/mL
  IL-8 level: 293 pg/mL
  MCP-1 level: 339 pg/mL
  MIP-1ß level: 84 pg/mL
  MIP-1α level: 12 pg/mL
  RANTES level: 5935 pg/mL
  TNF-α level: 16 pg/mL
[3]; [7]
  IFN-γ level: 68 pg/mL
  IL-1ß level: 101 pg/mL
  IL-6 level: 2 pg/mL
  IL-8 level: 83 pg/mL
  MCP-1 level: 317 pg/mL
  MIP-1ß level: 22 pg/mL
  MIP-1α level: 25 pg/mL
  RANTES level: 7825 pg/mL
  TNF-α level: 9 pg/mL
[4]; Day 17
  HCT: 43%
  MCH: 22.1 pg
  MCHC: 29.5 g/dL
  MCV: 75 fL
  RBC count: 5.8e+06 µL⁻¹
  WBC count: 17000 µL⁻¹
  hemoglobin content: 12.7 g/dL
  monocytes: 3.4%
  neutrophils: 85%
  platelet count: 380 ×100/μL
[4]; Day 31
  HCT: 41%
  MCH: 22.0 pg
  MCHC: 29.7 g/dL
  MCV: 75 fL
  RBC count: 5.6e+06 µL⁻¹
  WBC count: 17000 µL⁻¹
  hemoglobin content: 12.3 g/dL
  monocytes: 4.1%
  neutrophils: 116%
  platelet count: 376 ×100/μL
[4]; Day 45
  HCT: 41%
  MCH: 21.6 pg
  MCHC: 29.0 g/dL
  MCV: 75 fL
  RBC count: 5.5e+06 µL⁻¹
  WBC count: 20000 µL⁻¹
  hemoglobin content: 12.0 g/dL
  monocytes: 4.4%
  neutrophils: 93%
  platelet count: 345 ×100/μL
[4]; Day 55
  HCT: 41%
  MCH: 21.7 pg
  MCHC: 29.6 g/dL
  MCV: 74 fL
  RBC count: 5.6e+06 µL⁻¹
  WBC count: 15000 µL⁻¹
  hemoglobin content: 12.1 g/dL
  monocytes: 4.1%
  neutrophils: 91%
  platelet count: 319 ×100/μL
[4]; Day-5
  HCT: 42%
  MCH: 22.2 pg
  MCHC: 30.0 g/dL
  MCV: 74 fL
  RBC count: 5.7e+06 µL⁻¹
  WBC count: 15000 µL⁻¹
  hemoglobin content: 12.6 g/dL
  monocytes: 2.2%
  neutrophils: 80%
  platelet count: 416 ×100/μL
[4]; Day-14
  HCT: 41%
  MCH: 22.2 pg
  MCHC: 30.9 g/dL
  MCV: 72 fL
  RBC count: 5.7e+06 µL⁻¹
  WBC count: 20000 µL⁻¹
  hemoglobin content: 12.6 g/dL
  monocytes: 1.3%
  neutrophils: 60%
  platelet count: 379 ×100/μL

## 416850 (antisense TGCACAGTTTCTGGCAGGCC; 5-10-5 gapmer, further chemistry not given here) [compound 416850]
Factor 11 mRNA
  % inhibition of Factor 11 mRNA in liver relative to the PBS control: 68%

## 416858 (antisense ACGGCATTGGTGCACAGTTT; 5-10-5 gapmer, further chemistry not given here) [compound 416858]
Factor 11 mRNA
  % inhibition of Factor 11 mRNA in liver relative to the PBS control: 89%

## 445522 (antisense eG*e[5mC]*eA*e[5mC]*eA*dG*dT*dT*dT*d[5mC]*dT*dG*dG*e[5mC]*eA*eG*eG*e[5mC]) [compound 445522]
Factor 11 mRNA
  % inhibition of Factor 11 mRNA in liver relative to the PBS control: 89%

## ISIS 449711: 3-8-3, 4-8-4, 2-10-2, 3-10-3 or 4-10-4 MOE microwalk gapmer (Table 46) (antisense eA*e[5mC]*dA*dG*dT*dT*dT*d[5mC]*dT*dG*dG*d[5mC]*eA*eG)
[1]; Day 31
  BUN levels: 20 mg/dL
[1]; Day 55
  BUN levels: 23 mg/dL
[1]; [5]
  BUN levels: 22 mg/dL
[1]; [6]
  BUN levels: 26 mg/dL
[1]
  Urine protein/creatinine ratio: 0.01
[2]; Day 31
  ALT: 48 IU/L
  AST: 47 IU/L
  Bilirubin: 0.13 mg/dL
[2]; Day 55
  ALT: 54 IU/L
  AST: 47 IU/L
  Bilirubin: 0.13 mg/dL
[2]; Day −5
  ALT: 137 IU/L
  AST: 78 IU/L
  Bilirubin: 0.16 mg/dL
[2]; Day −14
  ALT: 49 IU/L
  AST: 58 IU/L
  Bilirubin: 0.23 mg/dL
[3]; day 55
  IFN-γ level: 22 pg/mL
  IL-1ß level: 146 pg/mL
  IL-6 level: 7 pg/mL
  IL-8 level: 110 pg/mL
  MCP-1 level: 469 pg/mL
  MIP-1ß level: 91 pg/mL
  MIP-1α level: 17 pg/mL
  RANTES level: 3029 pg/mL
  TNF-α level: 31 pg/mL
[3]; [7]
  IFN-γ level: 29 pg/mL
  IL-1ß level: 79 pg/mL
  IL-6 level: 2 pg/mL
  IL-8 level: 156 pg/mL
  MCP-1 level: 264 pg/mL
  MIP-1ß level: 24 pg/mL
  MIP-1α level: 20 pg/mL
  RANTES level: 3687 pg/mL
  TNF-α level: 6 pg/mL
[4]; Day 17
  HCT: 42%
  MCH: 22.2 pg
  MCHC: 29.9 g/dL
  MCV: 75 fL
  RBC count: 5.6e+06 µL⁻¹
  WBC count: 10000 µL⁻¹
  hemoglobin content: 12.5 g/dL
  monocytes: 5.9%
  neutrophils: 52%
  platelet count: 325 ×100/μL
[4]; Day 31
  HCT: 39%
  MCH: 22.1 pg
  MCHC: 29.8 g/dL
  MCV: 73 fL
  RBC count: 5.4e+06 µL⁻¹
  WBC count: 9000 µL⁻¹
  hemoglobin content: 11.8 g/dL
  monocytes: 6.9%
  neutrophils: 58%
  platelet count: 309 ×100/μL
[4]; Day 45
  HCT: 39%
  MCH: 21.7 pg
  MCHC: 29.6 g/dL
  MCV: 73 fL
  RBC count: 5.4e+06 µL⁻¹
  WBC count: 9000 µL⁻¹
  hemoglobin content: 11.5 g/dL
  monocytes: 7.6%
  neutrophils: 45%
  platelet count: 257 ×100/μL
[4]; Day 55
  HCT: 38%
  MCH: 21.3 pg
  MCHC: 29.5 g/dL
  MCV: 73 fL
  RBC count: 5.3e+06 µL⁻¹
  WBC count: 7000 µL⁻¹
  hemoglobin content: 11.3 g/dL
  monocytes: 7.8%
  neutrophils: 70%
  platelet count: 259 ×100/μL
[4]; Day-5
  HCT: 41%
  MCH: 22.7 pg
  MCHC: 30.7 g/dL
  MCV: 74 fL
  RBC count: 5.7e+06 µL⁻¹
  WBC count: 12000 µL⁻¹
  hemoglobin content: 12.7 g/dL
  monocytes: 2.3%
  neutrophils: 71%
  platelet count: 431 ×100/μL
[4]; Day-14
  HCT: 41%
  MCH: 22.6 pg
  MCHC: 31.0 g/dL
  MCV: 73 fL
  RBC count: 5.6e+06 µL⁻¹
  WBC count: 13000 µL⁻¹
  hemoglobin content: 12.7 g/dL
  monocytes: 1.2%
  neutrophils: 64%
  platelet count: 410 ×100/μL
